Like-named read-outs stand apart in the source and are kept apart here.
How the values were obtained:
[1] = target: T1, type-B cholecystokynin (CCK-B) or gastrin receptors (Oryctolagus cuniculus, UniProt P46627); assay: Inhibition of the gastrin-induced increase of cytosolic calcium in rabbit gastric mucosa cells; type: cell-based
T1 construct: rabbit gastric mucosa cells were prepared by conventional techniques; endogenous in cells; host or cells: freshly isolated rabbit gastric mucosa cells (collagenase/pronase digestion)
T1 sequence (P46627 1-452): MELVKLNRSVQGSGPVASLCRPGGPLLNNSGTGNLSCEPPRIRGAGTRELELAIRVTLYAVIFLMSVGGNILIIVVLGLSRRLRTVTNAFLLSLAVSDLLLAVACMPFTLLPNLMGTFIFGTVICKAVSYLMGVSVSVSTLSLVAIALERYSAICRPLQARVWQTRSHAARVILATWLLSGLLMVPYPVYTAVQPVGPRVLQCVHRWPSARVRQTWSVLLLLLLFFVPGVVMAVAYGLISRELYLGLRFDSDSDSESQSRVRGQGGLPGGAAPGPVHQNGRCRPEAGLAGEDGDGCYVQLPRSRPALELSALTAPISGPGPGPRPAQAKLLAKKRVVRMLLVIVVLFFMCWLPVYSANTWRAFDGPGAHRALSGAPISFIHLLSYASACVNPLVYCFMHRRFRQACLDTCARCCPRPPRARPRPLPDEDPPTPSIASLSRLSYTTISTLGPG
From the text: The parietal cells of the gastric mucosa are responsible for the secretion of HCl. They present specific membrane receptors which may be activated by gastrin and which have been defined as type-B cholecystokynin (CCK-B) or gastrin receptors.
Since it has been observed that the activation of the CCK-B receptors by gastrin results in a raising of the levels of cytosolic calcium ions, a technique has been used for measuring the increase in intracellular calcium induced by gastrin in the presence and absence of the compounds which are the subject of the invention, as an index of the anti-gastrin activity of the compounds themselves.
Suspensions (0.8×10^6 /ml) of rabbit gastric mucosa cells were prepared by conventional techniques with the use of collagenase and pronase as digestive enzymes; the estimation of the [Ca^2+ ]i values, basal or achieved after stimulation of the cell system was carried out in accordance with Grynkiewicz et al [J.Biol.Chem 260 (1985), 3440]. In the control samples the cells were stimulated with […] while in the samples in which the effect of the compounds in question was evaluated, the cells were incubated therewith before stimulation with gastrin. The results are expressed as percentage increases in [Ca^2+ ]i with respect to the control value. The anti-gastrin activity of the compounds was expressed as the IC50 value, that is, the concentration (in μmoles/liter) at which the response to the stimulus induced by the gastrin was reduced by 50%. The results thus obtained for several compounds of the invention are given in Table 3 which also gives an index formed from the ratio between the peripheral anti-gastrin activity just described and the displacement activity derived from the study of binding to the cortical receptors of guinea pigs described above.

central CCK-B receptor = target: T2, central CCK-B receptor (Cavia porcellus, UniProt H0VZC5); assay: Inhibition of binding of [3H][N-methyl-N-leucine]CCK-8 to guinea pig cortical membranes (anti-CCK-B in vitro)
T2 construct: The cerebral cortices of male albino guinea pigs were therefore used; from tissue; host or cells: cerebral cortex membranes of male albino guinea pigs
T2 sequence (H0VZC5 1-426): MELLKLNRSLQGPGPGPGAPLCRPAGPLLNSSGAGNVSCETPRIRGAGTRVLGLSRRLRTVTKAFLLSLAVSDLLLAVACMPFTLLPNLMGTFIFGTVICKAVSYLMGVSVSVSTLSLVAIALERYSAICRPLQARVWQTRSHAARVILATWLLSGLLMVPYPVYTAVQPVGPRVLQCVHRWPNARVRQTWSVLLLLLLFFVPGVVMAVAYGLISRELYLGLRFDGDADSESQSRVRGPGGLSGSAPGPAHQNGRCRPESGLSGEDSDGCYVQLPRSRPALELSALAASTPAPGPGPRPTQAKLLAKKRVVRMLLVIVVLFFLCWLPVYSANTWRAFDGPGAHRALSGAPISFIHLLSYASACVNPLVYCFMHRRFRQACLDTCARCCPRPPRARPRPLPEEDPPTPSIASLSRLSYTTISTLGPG
Method: The capacity of the compounds which are the subject of the invention to interact with the central CCK-B receptor was evaluated with the use of [3-H][N-methyl-N-leucine]CCK-8. […] The cerebral cortices of male albino guinea pigs were therefore used, the method given above being followed with slight modifications [Makovec et al.; Bioorganic & Med. Chem. Letters 3 (5)(1993), 861-866] so as to give a membrane content corresponding to about 300 mcg of protein/mL.

CCK-B receptors = settings: guinea pigs, Knapp et al. 1990; cited from earlier work
[2] = system: acid secretion induced by pentagastrin; assay: In vivo gastric anti-secretory activity in the anaesthetised rat, pentagastrin stimulation; settings: for ED50: iv, read-out: Activity (ID50); for times more powerful than CR 2194 / times more powerful than cimetidine: ID50 comparison, rat I.V.
Method: Gastric secretion was stimulated by pentagastrin and the method of Lai [Gut 5, (1964), 327-341] was used with slight modifications [Makovec et al, J.Med.Chem. 35 (1992), 28-38].
Pentagastrin dissolved in physiological saline was perfused for 120 minutes at a rate of 30 mcg/kg/h. After 60 minutes of perfusion (basal stimulation), the product to be tested was administered intravenously (I.V.) in bolus form, perfusion of the stimulant continuing for the remaining 60 minutes. The activity of the product was evaluated as the percentage reduction in acid secreted after the administration of the product with respect to the basal acidity measured in the first 60 minutes, during which time only pentagastrin was present.
The antagonists tested were administered at different doses in such a way as to enable the ID50 to be calculated, that is, the dose (in mg/kg I.V.) capable of inhibiting the effect of pentagastrin by 50%.

[3] = target: T3, cholecystokynin receptor (CCK-A) (Cavia porcellus, UniProt Q63931); assay: Anti-CCK-A activity, guinea pig gall bladder stimulated in vitro by CCK-8; settings: selectivity CCK-B vs CCK-A
T3 construct: The experimental model used was the guinea pig gall bladder stimulated in vitro by CCK-8; from tissue; host or cells: guinea pig gall bladder in vitro
T3 sequence (Q63931 1-430): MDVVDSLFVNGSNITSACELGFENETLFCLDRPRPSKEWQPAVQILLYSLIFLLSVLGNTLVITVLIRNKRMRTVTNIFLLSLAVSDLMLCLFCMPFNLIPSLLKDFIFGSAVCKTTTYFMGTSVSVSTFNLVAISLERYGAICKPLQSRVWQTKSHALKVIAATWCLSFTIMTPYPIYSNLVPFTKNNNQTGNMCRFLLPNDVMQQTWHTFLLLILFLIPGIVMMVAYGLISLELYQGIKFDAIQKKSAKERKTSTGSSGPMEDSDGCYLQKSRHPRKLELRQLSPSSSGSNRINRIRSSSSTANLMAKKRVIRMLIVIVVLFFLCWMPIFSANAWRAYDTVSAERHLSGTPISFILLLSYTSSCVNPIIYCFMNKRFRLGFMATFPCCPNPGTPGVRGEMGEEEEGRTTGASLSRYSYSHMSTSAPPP
From the text: The experimental model used was the guinea pig gall bladder stimulated in vitro by CCK-8 according to the method described by Makovec et al. [(Arzneim. Forsch/Drug. Res. 35 (7), 1048-1051 (1985)].

rats = assay: Anxiolytic activity, elevated plus-maze in rats; type: in vivo, rat
Method: It has in fact recently been postulated that the central CCK-B receptor plays an important role in anxiety. This accords with studies also carried out in man which have shown that the central CCK-B mechanisms have an important function in the mediation of panic attacks [Bradwejn, J.et al; J.Psychopharmacology 6 (1992), 345]. In order to confirm this hypothesis, the anxiolytic activities of several of the most powerful CCK-B antagonists of the invention were evaluated by the method of the "elevated plus-maze" in rats, carried out in accordance with Pellow et al. [J. of Neurosc. Meth. 14(1985), 149-167]. A labyrinth was used in which the length of the cross arm was about 45 cm placed at a height from the ground of 70 cm. On this experimental model, a compound having anxiolytic activity produces a percentage increase in the stay time in the open arms and a percentage increase in the number of entries into the open arms.
The results obtained are given in Table 5 below where the activities obtained with different doses of the compound 4 administered intraperitoneally (IP) are given in comparison with a group of animals treated with a physiological saline in the same way.

[4] = cells stimulated with 5×10^-8 gastrin, [Ca2+]i
[5] = displacement of [3H][N-methyl-N-leucine]CCK-8, cortical membrane in guinea pigs, read-out: IC50
[6] = I.V. bolus, rat, pentagastrin perfusion

## O=C(O)CC(CC(=O)Nc1cc(Cl)ccc1C(=O)N1CCC2(CCCC2)CC1)c1cccc2ccccc12 (stereo not drawn) [Compound 6]
[1]; [4]
  IC50: 140 nM
Central CCK-B receptor; [5]
  IC50: 1240 nM

## CN(C(=O)CC(CC(=O)O)c1cccc2ccccc12)c1ccccc1C(=O)N1CCC2(CCCC2)CC1 (stereo not drawn) [Compound 17]
Central CCK-B receptor; [5]
  IC50: > 1000 nM

## Cc1cc(C)c(NC(=O)CC(CC(=O)O)c2cccc(Cl)c2)c(C(=O)N2CCC3(CCCC3)CC2)c1 (stereo not drawn) [Compound 16]
[1]; [4]
  IC50: 82 nM
Central CCK-B receptor; [5]
  IC50: 395 nM

## [3-H][N-methyl-N-leucine]CCK-8
CCK-B receptors
  affinity times higher for the receptors of the cortex (CCK-B) than those of the pancreas (CCK-A): about 4000 times

## O=C(O)CC[C@@H](NC(=O)c1cc(Cl)cc(Cl)c1)C(=O)N1CCC2(CCCC2)CC1 [CR 2194, reference compound]
[2]; [6]
  ED50: 11 mg/kg

## O=C(O)CC(CC(=O)Nc1cc2ccccc2cc1C(=O)N1CCC2(CCCCC2)CC1)c1cccc2ccccc12 (stereo not drawn) [Compound 18]
[1]; [4]
  IC50: 105 nM
Central CCK-B receptor; [5]
  IC50: 661 nM

## Cc1cc(C)c(NC(=O)CC(CC(=O)O)c2cccc3ccccc23)c(C(=O)N2CCC3(CCCC3)CC2)c1 (stereo not drawn) [Compound 4]
[1]; [4]
  IC50: 4 nM
[1]; gastrin-induced [Ca2+]i in rabbit gastric mucosa cells
  IC50: 4 nM
[2]
  times more powerful than CR 2194: 10-50 times
  times more powerful than cimetidine: 2-10 times
[2]; [6]
  ED50: 0.2 mg/kg
Central CCK-B receptor; [5]
  IC50: 24 nM
Central CCK-B receptor; ratio of binding IC50 values
  times less active than pentagastrin: 8 times
[3]
  affinity times higher for the gastrin receptor (CCK-B) than for the cholecystokynin receptor (CCK-A): at least 300 times
rats; 0.03 mg/kg I.P., rat
  % Effect VS controls (time): 10.4%
  % Effect Vs controls (entries): 19.3%
  Entries to open arm/total entries (%): 36.4%
  Time in open arm/total time (%): 21.1%
rats; 0.3 mg/kg I.P., rat
  % Effect VS controls (time): 47.9%
  % Effect Vs controls (entries): 39.3%
  Entries to open arm/total entries (%): 42.5%
  Time in open arm/total time (%): 28.2%
rats; 0.3 mg/kg I.P., significant vs saline controls
  percentage stay time in the open arms compared with controls: increases the percentage stay time in the open arms
rats; 3.0 mg/kg I.P., rat
  % Effect VS controls (time): 4.2%
  % Effect Vs controls (entries): 11.5%
  Entries to open arm/total entries (%): 34.0%
  Time in open arm/total time (%): 19.9%
rats; dose range 0.03-3 mg/kg I.P.
  percentage number of entries into the open arm compared with the controls: increases the percentage number of entries into the open arm
rats; plus maze, rat, I.P.
  anxiolytic effect: displays an anxiolytic effect

## O=C(O)CC(CC(=O)Nc1cc2ccccc2cc1C(=O)N1CCC2(CC1)OCCO2)c1cccc2ccccc12 (stereo not drawn) [Compound 14]
[2]; Rattus norvegicus
  ED50: 7.9 mg/kg
Central CCK-B receptor
  IC50: 1080 nM

## CSCC[C@H](NC(=O)[C@H](Cc1c[nH]c2ccccc12)NC(=O)CCNC(=O)OC(C)(C)C)C(=O)N[C@@H](CC(=O)O)C(=O)N[C@@H](Cc1ccccc1)C(N)=O [Pentagastrin, reference compound]
Central CCK-B receptor; [5]
  IC50: 3 nM

## CN/C(=N/CCSCc1nc[nH]c1C)NC#N [Cimetidine, cimetidine, reference compound]
[2]; [6]
  ED50: 2.5 mg/kg

## O=C(O)CC(CC(=O)Nc1cc2ccccc2cc1C(=O)N1CCC2(CCCC2)CC1)c1cccc2ccccc12 (racemic) [Compound 13, 3-(DL)-(1-naphthyl)-5-[2'-carbamoyl(8-azaspiro[4.5]dec-8-yl)]-3'-naphthylamino]-5-oxopentanoic acid]
[1]; [4]
  IC50: 37 nM
[2]
  times more powerful than CR 2194: 10-50 times
  times more powerful than cimetidine: 2-10 times
[2]; [6]
  ED50: 1 mg/kg
Central CCK-B receptor; [5]
  IC50: 225 nM

## O=C(O)CC(CC(=O)Nc1c(Cl)cccc1C(=O)N1CCC2(CCCC2)CC1)c1cccc2ccccc12 (stereo not drawn) [Compound 5]
[2]; [6]
  ED50: 2.6 mg/kg

## Cc1ccc(NC(=O)CC(CC(=O)O)c2cccc3ccccc23)c(C(=O)N2CCC3(CCCC3)CC2)c1 (stereo not drawn) [Compound 3]
[1]; [4]
  IC50: 30 nM
Central CCK-B receptor; [5]
  IC50: 188 nM

## COc1cc(NC(=O)CC(CC(=O)O)c2cccc3ccccc23)c(C(=O)N2CCC3(CCCC3)CC2)cc1OC (stereo not drawn) [Compound 10]
[1]; [4]
  IC50: > 300 nM
Central CCK-B receptor; [5]
  IC50: 820 nM

## O=C(O)CCC(NC(=O)c1cccc2ccccc12)C(=O)Nc1cccc(C(=O)N2CCC3(CCCC3)CC2)c1 (stereo not drawn) [Compound 12]
[2]; [6]
  ED50: > 10 mg/kg
Central CCK-B receptor; [5]
  IC50: > 1000 nM
